Experiments:
[1] = molecular target: T1, vasopressin V1a receptor (Homo sapiens, UniProt P37288); test: Inhibition of phosphatidylinositol turnover; assay type: cell-based; conditions: hV1a cells, [3H]inositol phosphates, versus 10 nM AVP
T1 construct: host or cells: CHO cells
From the text: Inhibition of Phosphatidylinositol Turnover.
The physiological effects of vasopressin are mediated through specific G-protein coupled receptors. The vasopressin V1a receptor is coupled to the Gq/G11 family of G proteins and mediates phosphatidylinositol turnover. The agonist or antagonist character of the compounds of the invention may be determined by their ability to inhibit vasopressin-mediated turnover of phosphatidylinositol by the procedure described in the following paragraphs.
Three days prior to the assay, near-confluent cultures of hV1a cells were dissociated and seeded in 6-well tissue culture plates, about 100 wells being seeded from each 75 cm^2 flask (equivalent to 12:1 split ratio). Each well contained 1 mL of growth medium with 2 μCi of [^3H]myo-inositol (American Radiolabeled Chemicals, St. Louis, Mo., USA).
All assays were in triplicate except for basal and 10 nM AVP (both n=6). AVP ((arginine vasopressin), Peninsula Labs, Belmont, Calif., USA (#8103)) was dissolved in 0.1N acetic acid. Test agents were dissolved in DMSO and diluted in DMSO to 200 times the final test concentration. […] The order of incubations was randomized. Incubations were initiated by removing the prelabeling medium, washing the monolayer once with 1 mL of 0.9% NaCl, and transferring the contents of the assay tubes to corresponding wells. The plates were incubated for 1 hour at 37° C. Incubations were terminated by removing the incubation medium and adding 500 μL of ice cold 0.5% (w/v) trichloroacetic acid and allowing the wells to stand for 15 min.
BioRad Poly-Prep Econo-Columns were packed with 0.3 mL of AG 1 X-8 100-200 formate form resin. Resin was mixed 1:1 with water and 0.6 mL added to each column. Columns were then washed with 10 mL water. Scintillation vials (20 mL) were placed under each column. For each well, the contents were transferred to a minicolumn, after which the well was washed with 0.5 mL distilled water, which was also added to the minicolumn. The columns were then washed twice with 5 mL of 5 mM myo-inositol to elute free inositol. Aliquots (1 mL) were transferred to 20 mL scintillation vials and 10 mL of Beckman Ready Protein Plus added. After the myo-inositol wash was complete, empty scintillation vials were placed under the columns, and [^3H]inositol phosphates were eluted with three additions of 1 mL 0.5 M ammonium formate containing 0.1 N formic acid. Elution conditions were optimized to recover inositol mono-, bis-, and trisphosphates, without eluting the more metabolically inert tetrakis-, pentakis-, and hexakis-phosphates. […] Inositol lipids were measured by adding 1 mL of 2% sodium dodecyl sulfate (SDS) to each well, allowing the wells to stand for at least 30 min., and transferring the solution to 20 mL scintillation vials, to which 10 mL Beckman Ready Protein Plus scintillation fluid was then added. Samples were counted in a Beckman LS 3801 liquid scintillation counter for 10 min. Total inositol incorporation for each well was calculated as the sum of free inositol, inositol phosphates, and inositol lipids.
Concentration-response curves for AVP and concentration-inhibition curves for test agents versus 10 nM AVP were analyzed by nonlinear least-squares curve-fitting to a 4-parameter logistic function. […] The curve-fitting was weighted under the assumption that the standard deviation was proportional to dpm of radioactivity. […] Inositol phosphates were expressed as dpm per 10^6 dpm of total inositol incorporation. […]

[2] = molecular target: T2, human V1a receptor (Homo sapiens, UniProt P37288); test: Human vasopressin V1a receptor binding assay; conditions: hV1a cell line (CHO), competition with 1 nM 3H-AVP, 45 minutes at 37° C.; read-out: V1a BINDING AFFINITY (IC50 (nM))
T2 construct: host or cells: CHO cells
Experimental: Human Vasopression V1a Receptor Binding Assay.
A cell line expressing the human V1a receptor in CHO cells (henceforth referred to as the hV1a cell line) was obtained from Dr. Michael Brownstein, NIMH, Bethesda, Md., USA. The hV1a cDNA sequence is described by Thibonnier et al., Journal of Biological Chemistry, 269, 3304-3310 (1994), and the expression method was the same as described by Morel et al. (1992). The hV1a cell line was grown in alpha-MEM with 10% fetal bovine serum and 250 ug/ml G418 (Gibco, Grand Island, N.Y., USA). For competitive binding assay, hV1a cells were plated into 6-well culture plate at 1:10 dilution from a confluency flask, and maintained in culture for at least two days. Culture medium was then removed, cells were washed with 2 ml binding buffer (25 mM Hepes, 0.25% BSA, 1×DMEM, PH=7.0). To each well, 990 μl binding buffer containing 1 nM 3H-AVP was added, and followed by 10 μl series diluted Example compounds dissolved in DMSO. […] 100 nM cold AVP (Sigma) was used to assess non-specific binding. Cells were incubated for 45 minutes at 37° C., assay mixture was removed and each well was washed three times with PBS (pH=7.4). 1 ml 2% SDS was added per well and plates were let sit for 30 minutes. The whole content in a well was transferred to a scintillation vial. Each well was rinsed with 0.5 ml PBS which was then added to the corresponding vial. Scintillation fluid (Ecoscint, National Diagnostics, Atlanta, Ga.) was then added at 3 ml per vial. Samples were counted in a liquid scintillation counter (Beckman LS3801). IC50 values were calculated by Prism Curve fitting software.
All of the alkanedioic esters and amides exemplified in the foregoing examples were tested in this assay described of Example 201.

T1 sequence (P37288 whole entry): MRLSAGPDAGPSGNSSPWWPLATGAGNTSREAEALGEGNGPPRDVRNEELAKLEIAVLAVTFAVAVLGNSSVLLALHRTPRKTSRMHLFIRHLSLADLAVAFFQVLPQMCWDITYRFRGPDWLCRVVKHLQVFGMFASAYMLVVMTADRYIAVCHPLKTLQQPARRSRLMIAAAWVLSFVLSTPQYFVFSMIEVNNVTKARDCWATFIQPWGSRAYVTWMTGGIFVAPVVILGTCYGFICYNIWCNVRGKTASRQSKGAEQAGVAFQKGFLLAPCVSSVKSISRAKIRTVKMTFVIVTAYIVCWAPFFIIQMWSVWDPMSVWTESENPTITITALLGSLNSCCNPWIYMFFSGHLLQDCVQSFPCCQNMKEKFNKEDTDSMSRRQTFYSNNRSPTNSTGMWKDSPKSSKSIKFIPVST
T2 sequence (P37288 whole entry): as above

Row | Compound | agonist or antagonist character by inhibition of vasopressin-mediated turnover of phosphatidylinositol [1] | IC50 [2]
1 | O=C(NCc1cccc(C(F)(F)F)c1)[C@H](CC(=O)N1CCC(N2CCCCC2)CC1)N1C(=O)[C@@H](N2C(=O)OC[C@@H]2c2ccccc2)[C@H]1/C=C/c1ccccc1 [Example 44] | vasopressin V1a antagonists | 3.1 nM
2 | O=C(NCc1cccc(C(F)(F)F)c1)C(CCC(=O)N1CCC(N2CCCCC2)CC1)N1C(=O)C(N2C(=O)OCC2c2ccccc2)C1C=Cc1ccccc1 (single isomer, unassigned) [Example 88] | vasopressin V1a antagonists | –
3 | O=C(CC[C@@H](C(=O)NCc1cccc(C(F)(F)F)c1)N1C(=O)[C@@H](N2C(=O)OC[C@@H]2c2ccccc2)[C@H]1/C=C/c1ccccc1)NCc1cccnc1 [Example 109] | – | ~100 nM

Continued, values first:

Row | agonist or antagonist character by inhibition of vasopressin-mediated turnover of phosphatidylinositol [1] | IC50 [2] | Compound
4 | vasopressin V1a antagonists | 1.9 nM | O=C(NCc1cccc(C(F)(F)F)c1)[C@H](CCC(=O)N1CCN(CCc2ccccc2)CC1)N1C(=O)[C@@H](N2C(=O)OC[C@@H]2c2ccccc2)[C@H]1C=Cc1ccccc1 (single isomer, unassigned) [Example 35]
5 | vasopressin V1a antagonists | 2.43 nM | O=C(NCc1cccc(C(F)(F)F)c1)[C@@H](CC(=O)N1CCC(N2CCCCC2)CC1)N1C(=O)[C@@H](N2C(=O)OC[C@@H]2c2ccccc2)[C@H]1/C=C/c1ccccc1 [Example 133]
6 | vasopressin V1a antagonists | 0.49 nM | O=C(NCc1cccc(C(F)(F)F)c1)C(CCC(=O)N1CCN(C2CCCCC2)CC1)N1C(=O)C(N2C(=O)OCC2c2ccccc2)C1C=Cc1ccccc1 (single isomer, unassigned) [Example 110]
